Numbers after ± are expanded uncertainties.
Test: xn = mol fraction of the nth substance listed
Conditions: Constant-volume piezometry

CCCCC [pentane] + CCCO
Conditions	mass density [kg/m3]
503.15 K, 5980 kPa, Fluid (supercritical or subcritical phases), x1 = 0.8	288.67 ± 1.5
503.15 K, 6051 kPa, Fluid (supercritical or subcritical phases), x1 = 0.9	301.99 ± 1.5
503.15 K, 6149 kPa, Fluid (supercritical or subcritical phases), x1 = 0.8	299.5 ± 1.5
503.15 K, 6295 kPa, Fluid (supercritical or subcritical phases), x1 = 0.9	312.64 ± 1.6
503.15 K, 6413 kPa, Liquid, x1 = 0.2	470.91 ± 0.96
503.15 K, 6490 kPa, Fluid (supercritical or subcritical phases), x1 = 0.5	373.27 ± 1.9
503.15 K, 6551 kPa, Fluid (supercritical or subcritical phases), x1 = 0.8	315.69 ± 1.6
503.15 K, 6924 kPa, Fluid (supercritical or subcritical phases), x1 = 0.9	334.38 ± 1.7
503.15 K, 7052 kPa, Fluid (supercritical or subcritical phases), x1 = 0.8	334.2 ± 1.7
503.15 K, 7423 kPa, Fluid (supercritical or subcritical phases), x1 = 0.8	345.74 ± 1.7
503.15 K, 7481 kPa, Fluid (supercritical or subcritical phases), x1 = 0.5	398.56 ± 2
503.15 K, 7825 kPa, Fluid (supercritical or subcritical phases), x1 = 0.9	354.5 ± 1.8
503.15 K, 8266 kPa, Fluid (supercritical or subcritical phases), x1 = 0.8	362.32 ± 1.8
503.15 K, 8559 kPa, Fluid (supercritical or subcritical phases), x1 = 0.5	417.68 ± 2.1
503.15 K, 10489 kPa, Fluid (supercritical or subcritical phases), x1 = 0.5	441.45 ± 2.2
503.15 K, 10609 kPa, Liquid, x1 = 0.2	510.19 ± 1
503.15 K, 11537 kPa, Fluid (supercritical or subcritical phases), x1 = 0.5	451.78 ± 2.3
503.15 K, 12022 kPa, Fluid (supercritical or subcritical phases), x1 = 0.9	407.75 ± 2
503.15 K, 12689 kPa, Fluid (supercritical or subcritical phases), x1 = 0.8	418.68 ± 2.1
503.15 K, 14223 kPa, Fluid (supercritical or subcritical phases), x1 = 0.5	468.71 ± 2.4
503.15 K, 18302 kPa, Liquid, x1 = 0.2	547.72 ± 1.1
503.15 K, 21559 kPa, Fluid (supercritical or subcritical phases), x1 = 0.8	467.26 ± 2.4
503.15 K, 26707 kPa, Fluid (supercritical or subcritical phases), x1 = 0.5	519.99 ± 2.6
503.15 K, 30356 kPa, Fluid (supercritical or subcritical phases), x1 = 0.8	496.72 ± 2.5
503.15 K, 30587 kPa, Liquid, x1 = 0.2	582.08 ± 1.2
503.15 K, 37782 kPa, Liquid, x1 = 0.2	595.68 ± 1.2
503.15 K, 41722 kPa, Fluid (supercritical or subcritical phases), x1 = 0.8	521.26 ± 2.6
504.15 K, 4315 kPa, Liquid, x1 = 0.2	419.14 ± 0.86
508.15 K, 4020 kPa, Gas, x1 = 0.2	114.44 ± 0.37
508.15 K, 4961 kPa, Liquid, x1 = 0.2	419.05 ± 0.85
510.15 K, 4548 kPa, Liquid, x1 = 0.2	383.7 ± 0.78
511.15 K, 4773 kPa, Liquid, x1 = 0.2	391.53 ± 0.8
513.15 K, 933 kPa, Gas, x1 = 0.5	15.53 ± 0.05
513.15 K, 1283 kPa, Gas, x1 = 0.8	22.54 ± 0.07
513.15 K, 1508 kPa, Gas, x1 = 0.2	24.94 ± 0.08
513.15 K, 1686 kPa, Gas, x1 = 0.5	30 ± 0.09
513.15 K, 1923 kPa, Gas, x1 = 0.8	36.71 ± 0.11
513.15 K, 2226 kPa, Gas, x1 = 0.5	40.51 ± 0.12
513.15 K, 2615 kPa, Gas, x1 = 0.5	51.12 ± 0.16
513.15 K, 2796 kPa, Gas, x1 = 0.8	58.44 ± 0.18
513.15 K, 2974 kPa, Gas, x1 = 0.2	53.03 ± 0.17
513.15 K, 3284 kPa, Gas, x1 = 0.5	67.55 ± 0.21
513.15 K, 3295 kPa, Gas, x1 = 0.8	73.83 ± 0.23
513.15 K, 3462 kPa, Gas, x1 = 0.5	72.63 ± 0.23
513.15 K, 3488 kPa, Gas, x1 = 0.9	83.42 ± 0.26
513.15 K, 3816 kPa, Gas, x1 = 0.2	91.46 ± 0.29
513.15 K, 3844 kPa, Gas, x1 = 0.5	88.95 ± 0.28
513.15 K, 4033 kPa, Gas, x1 = 0.5	95.89 ± 0.33
513.15 K, 4156 kPa, Fluid (supercritical or subcritical phases), x1 = 0.8	106.45 ± 0.54
513.15 K, 4165 kPa, Gas, x1 = 0.2	114.41 ± 0.4
513.15 K, 4349 kPa, Fluid (supercritical or subcritical phases), x1 = 0.9	123.41 ± 0.63
513.15 K, 4538 kPa, Fluid (supercritical or subcritical phases), x1 = 0.9	134.18 ± 0.69
513.15 K, 4567 kPa, Fluid (supercritical or subcritical phases), x1 = 0.5	121.95 ± 1.1
513.15 K, 4703 kPa, Liquid, x1 = 0.2	350.76 ± 0.87
513.15 K, 4837 kPa, Fluid (supercritical or subcritical phases), x1 = 0.5	144.18 ± 0.99
513.15 K, 4850 kPa, Fluid (supercritical or subcritical phases), x1 = 0.8	140.37 ± 0.72
513.15 K, 4865 kPa, Liquid, x1 = 0.2	378.83 ± 0.86
513.15 K, 4965 kPa, Fluid (supercritical or subcritical phases), x1 = 0.9	164.03 ± 0.84
513.15 K, 4968 kPa, Fluid (supercritical or subcritical phases), x1 = 0.5	154.56 ± 1.2
513.15 K, 4968 kPa, Liquid, x1 = 0.2	383.64 ± 0.8
513.15 K, 5032 kPa, Fluid (supercritical or subcritical phases), x1 = 0.8	156.12 ± 0.81
513.15 K, 5068 kPa, Fluid (supercritical or subcritical phases), x1 = 0.2	391.49 ± 2
513.15 K, 5068 kPa, Liquid, x1 = 0.2	391.49 ± 0.83
513.15 K, 5086 kPa, Fluid (supercritical or subcritical phases), x1 = 0.5	165.22 ± 0.84
513.15 K, 5197 kPa, Fluid (supercritical or subcritical phases), x1 = 0.8	169.87 ± 0.89
513.15 K, 5255 kPa, Fluid (supercritical or subcritical phases), x1 = 0.5	182.94 ± 0.95
513.15 K, 5265 kPa, Fluid (supercritical or subcritical phases), x1 = 0.8	176.11 ± 0.92
513.15 K, 5295 kPa, Fluid (supercritical or subcritical phases), x1 = 0.9	189.54 ± 0.98
513.15 K, 5344 kPa, Fluid (supercritical or subcritical phases), x1 = 0.8	180.91 ± 0.94

Liquid, x1 = 0.2
Conditions	mass density [kg/m3]
508.65 K	391.58 ± 2.4
509.65 K	383.71 ± 2.3
510.35 K	378.89 ± 2.3
512.85 K	350.77 ± 2.1
